# Columns and labels:
# [1] = system: human glioblastoma cell lines U-87MG or U-373MG, Kaposi sarcoma cell lines KSY-1 or KS-SLK, malignant melanoma cell line MV3 or BLM, medulloblastoma cell line …; assay: Proliferation assay on cell cultures (Example 3); assay type: cell-based; details: cell lines of Example 3 treated with the substance
# [2] = system: malignant gliomas U-87MG and U-373MG; assay: In vivo study with tumor-implanted nude mice (Example 4); details: daily dosages
# Procedure: An effect of the treatment of tumor-implanted nude mice (Pinski et al., supra) each with one of the GnRH agonists Buserelin, Triptorelin, Goserelin, and Leuprorelin and each with one of the GnRH antagonists Cetrorelix® (SB-75), Antarelix®, Antide®, and Ramorelix® on the growth of malignant gliomas U-87MG and U-373MG was carried out using daily dosages and controls in nude mice using analysis techniques described for the determination of the efficacy of similar peptides in Pinski et al., supra.
# [3] = system: Me15392 melanoma cells; assay: Cell proliferation studies, Me15392 cells; assay type: cell-based, human; details: 10^−11-10^−6 M, 7 days
# Procedure: The antiproliferative action of GnRH agonists on melanoma cells is further investigated in another melanoma cell line (Me15392). These experiments have been carried out as described above for BLM cells (same GnRH agonist, same doses of the drug and same length of treatment, etc.). All proliferation experiments were performed in four to six replicates. The data obtained from three independent experiments were analyzed according to the Dunnett's test after one-way ANOVA.
compound,measurement,setting,value
"CC(C)C[C@H](NC(=O)[C@@H](COC(C)(C)C)NC(=O)[C@H](Cc1ccc(O)cc1)NC(=O)[C@H](CO)NC(=O)[C@H](Cc1c[nH]c2ccccc12)NC(=O)[C@H](Cc1cnc[nH]1)NC(=O)[C@@H]1CCC(=O)N1)C(=O)N[C@@H](CCCNC(=N)N)C(=O)N1CCC[C@H]1C(=O)NNC(N)=O [ZOLADEX®, D-Ser(tBu)^6Aza-Gly-LHRH]",anti-proliferative effects in tumor cells,[1],Significant anti-proliferative effects
same,growth of malignant gliomas,[2],Significant growth-inhibiting effects
same,cell proliferation,[3],significant and dose-dependent inhibition of cell proliferation

# Reference: US8962558B2, “Methods for reducing GnRH-positive tumor cell proliferation using the GnRH antagonist IN3” (priority 1997, dated 2015)
